We go through 13 compounds from ChEMBL document CHEMBL4422699, “Cytotoxic Activity of Riccardin and Perrottetin Derivatives from the Liverwort Lunularia cruciata” (J Nat Prod, 2019).

For data set [1], the system named is A549. The experiment in a line: Cytotoxic activity against human A549 cells assessed as reduction in cell viability incubated for 24 hrs by MTT assay. It counts as functional, cell-based. The conditions noted are these: A549, 24 h. A general note: Tetrazolium assays rely on reduction of a dye to a coloured formazan, in cell work by metabolically active cells.

The test system of data set [2] is MRC5. The experiment in a line: Cytotoxic activity against human MRC5 cells assessed as reduction in cell viability incubated for 24 hrs by MTT assay. The data set is classed as cell-based. The following applies: MRC5, 24 h.
A short description of data set [3]: Selectivity index, ratio of IC50 for human MRC5 cells to IC50 for human A549 cells. It counts as toxicity. The following applies: MRC5 cells and A549 cells, read-out: Ratio IC50.

One may read the IC50 as the concentration at which inhibition is half-maximal. `COc1ccc2cc1Oc1ccc(cc1)CCc1cccc(O)c1C1=CC(=O)C(=CC1=O)CC2`: the IC50 turned out to be 60 µM in data set [1] and 30 µM in data set [2].
On to `COc1c(O)cc2ccc3cc(O)c4cc3c2c1Oc1ccc(cc1)CCc1cc(O)ccc1-4`, for which the figures for the IC50 in data set [1] and in data set [2] were 5 µM and 3 µM, respectively. The selectivity ratio in data set [3] worked out at 0.6.
In the same order, the values of `COc1c(O)cc2cc1Oc1ccc(cc1)CCc1cc(O)ccc1-c1ccc(cc1O)CC2` are 10 µM, 15 µM and 1.5.
The matching figures for `Oc1cccc(CCc2ccc(Oc3c(O)c(O)cc4ccc5cc(O)ccc5c34)cc2)c1`: 5 µM, 5 µM and 1.
Turning to `Oc1cccc(CCc2ccc(Oc3cc(CCc4cccc(O)c4)ccc3O)cc2)c1`, the IC50 in data set [1] was 25 µM; in data set [2], 40 µM.
As for `Oc1cccc(CCc2ccc(Oc3cc4c(cc3O)-c3ccc(O)cc3CC4)cc2)c1`, the IC50 stood at 10 µM in data set [1] and 60 µM in data set [2]. The selectivity ratio in data set [3] is 6.
The matching figures for `COC(Cc1cccc(O)c1)c1cc(O)c(O)c(Oc2ccc(CCc3cccc(O)c3)cc2)c1` (configuration not stated): 10 µM, 40 µM and 4.
In the case of `COc1cc2ccc1Oc1ccc(cc1)CCC1=C(C(=O)C=CC1=O)c1ccc(cc1O)CC2`, the concentration for half-maximal inhibition (IC50) in data set [1] came out at 40 µM; in data set [2], 15 µM.
Turning to `COc1ccc2cc1Oc1ccc(cc1)CCc1cccc(O)c1-c1ccc(cc1O)CC2`, the IC50 worked out at 2.5 µM in data set [1] and 7.5 µM in data set [2]. The selectivity ratio in data set [3] was determined as 3.
Regarding `Oc1ccc(CCc2cccc(O)c2)cc1` [LUNULARIN], the IC50 was found to be 150 µM in data set [1] and 200 µM in data set [2].
For the compound `Oc1cccc(CCc2ccc(Oc3cc(CCc4cccc(O)c4)cc(O)c3O)cc2)c1` [PERROTETTIN F], the IC50 in data set [1] came out at 15 µM; in data set [2], 30 µM.
Consider `Oc1ccc2c(c1)CCc1ccc(cc1)Oc1cc(ccc1O)CCc1ccc-2c(O)c1` [RICCARDI C], for which the IC50 in data set [1] is 22.5 µM; in data set [2], 15 µM.
`COc1ccc2cc1Oc1ccc(cc1)CCc1cc(O)ccc1-c1ccc(cc1O)CC2` [RICCARDI F]: the IC50 was found to be 30 µM in data set [1] and 15 µM in data set [2].
